Results on 14 compounds are retold here after US9493478B2, “Fused ring compound containing furan or salt thereof and pharmaceutical composition comprising same” (YUHAN CORPORATION, priority 2012, dated 2016).

Common to all, as to format: biochemical
Assay [1] deals with PI3Kδ (p110δ/p85α)(h) (Homo sapiens, UniProt O00329). Put plainly: Assay for phosphatidylinositol 3-kinase delta (PI3Kδ) activity, PI3K-HTRF kit. As to conditions: TR-FRET; enzyme 0.725 μg/ml, 10 μM PIP2, 10 μM ATP. Here is the method:
[The source words this procedure for another target and says it was used here with some conditions changed.] (§1) The compounds of the present invention were assayed for the activity of phosphatidylinositol 3-kinase gamma (PI3Kγ) by using a PI3K enzyme-homogenous time resolved fluorescence (PI3K-HTRF) kit, which is available from Upstate (Millipore Co, Billerica, Mass., USA).
(§2) Three kinds of buffer solutions including a phosphorylation reaction solution (a reaction buffer containing 40 mM MgCl2 which is available from Upstate was diluted 4 times and added with 5 mM DTT), a stop solution (STOP A and B solutions which are available from Upstate were mixed at a ratio of 3:1) and a fluorescence detection solution (Detection solutions A, B and C which are available from Upstate were mixed at a ratio of 1:1:18) were prepared. 1 mM of PIP2 substrate (phosphatidylinositol 4,5 biphosphate; Upstate), PI3Kγ (#14-558; Upstate) enzyme and 10 mM ATP (Sigma Aldrich Co., St. Louis, Mo., USA) were prepared. Each of PI3Kγ, 1 mM PIP2 and 10 mM ATP was diluted to 2.9 μg/ml (final reaction concentration: 1.45 μg/ml), 20 μM (final reaction concentration: 10 μM) and 40 μM (final reaction concentration: 10 μM), respectively. The buffer solution used for dilution and preparation process was the phosphorylation reaction solution. The stop solution was used for the termination of phosphorylation reaction, and the fluorescence detection solution was used for the detection of time-resolved fluorescence signals.
(§3) Each test sample was transferred to a 384 well low flange white flat bottom microplate (#3572, Corning Life Sciences, Lowell, Mass., USA) by using a multi 8-channel (Pipetman Neo multi 8×20, Gilson, Middleton, Wis., USA) to make a final phosphorylation reaction volume of 20 μl per each well. For the negative control, 5 μl of 14.4% DMSO and 10 μl of PIP2 substration solution were used, and 5 μl of 14.4% DMSO and 10 μl of PIP2/PI3Kγ mixed solution were used as the positive control. For the test group, 5 μl of a solution prepared by dissolving the compound obtained in Example in DMSO and 10 μl of PIP2/PI3Kγ mixed solution were used. Before the initiation of the phosphorylation reaction, sample compounds were pretreated with the enzyme for approximately 10 minutes, and then the phosphorylation reaction was induced by adding 5 μl of ATP. Since each of the test compound and ATP takes up 25% of the total volume, and PIP2 and PI3Kγ take up 50% of the total volume during the reaction, each solution was concentrated 4 and 2 times, respectively, before mixing the solutions. Subsequently, the test sample was gently shook for 3 minutes and subjected to a phosphorylation reaction for 90 minutes at room temperature, which was then added with 5 μl of the stop solution to terminate the phosphorylation reaction. In order to induce a time-resolved fluorescence reaction, 5 μl of the fluorescence detection solution was added to the sample. The fluorescence detection solution contains biotin-phosphatidylinositol 3,4,5-triphosphate (PIP3), streptavidin-labeled Allopycocyanin (APC) and europium-labeled Pleckstrin homology domain (the PIP3 binds to PH domain), and the time-resolved fluorescence reaction is induced by a series of reaction of PH domain and PIP3, and biotin and streptavidin. The sample was left to stand for 6 hours at room temperature, and the time-resolved fluorescence resonance energy transfer (TR-FRET) rate was measured (emission wavelength: 665 nm, 620 nm, excitation wavelength: 340 nm) by using a Flexstation3 Micro plate reader (Molecular Devices, USA). TR-FRET Rate and TR-Inhibition Rate were calculated based on Equations 1 and 2 below, and the results are expressed in IC50, which is the concentration of a compound that inhibits 50% of PI3Kγ activity in vitro. TR-FRET Rate=(665 nm emission wavelength/620 nm emission wavelength)×10000 <Equation 1> TR-FRET Inhibition Rate=[(TR-FRET Rate of Sample−TR-FRET Rate of Negative Control)/(TR-FRET Rate of Positive Control−TR-FRET Rate of Negative Control)]×100 <Equation 2> […]
Background: Time-resolved FRET reads energy transfer from a long-lived donor to a nearby acceptor.

Assay [2] concerns the target PI3Kα (p110α/p85α)(h) (Homo sapiens, UniProt P42336). Put plainly: Assay for phosphatidylinositol 3-kinase alpha (PI3Kα) activity, PI3K-HTRF kit. As to conditions: TR-FRET; enzyme 0.3625 μg/ml, 10 μM PIP2, 10 μM ATP. Here is the method: [The source words this procedure for another target and says it was used here with some conditions changed.] as §1, §2
(§4) Each test sample was transferred to a 384 well low flange white flat bottom microplate (#3572, Corning Life Sciences, Lowell, Mass., USA) by using a multi 8-channel (Pipetman Neo multi 8×20, Gilson, Middleton, Wis., USA) to make a final phosphorylation reaction volume of 20 μl per each well. For the negative control, 5 μl of 14.4% DMSO and 10 μl of PIP2 substration solution were used, and 5 μl of 14.4% DMSO and 10 μl of PIP2/PI3Kγ mixed solution were used as the positive control. For the test group, 5 μl of a solution prepared by dissolving the compound obtained in Example in DMSO and 10 μl of PIP2/PI3Kγ mixed solution were used. Before the initiation of the phosphorylation reaction, sample compounds were pretreated with the enzyme for approximately 10 minutes, and then the phosphorylation reaction was induced by adding 5 μl of ATP. Since each of the test compound and ATP takes up 25% of the total volume, and PIP2 and PI3Kγ take up 50% of the total volume during the reaction, each solution was concentrated 4 and 2 times, respectively, before mixing the solutions. Subsequently, the test sample was gently shook for 3 minutes and subjected to a phosphorylation reaction for 90 minutes at room temperature, which was then added with 5 μl of the stop solution to terminate the phosphorylation reaction. In order to induce a time-resolved fluorescence reaction, 5 μl of the fluorescence detection solution was added to the sample. The fluorescence detection solution contains biotin-phosphatidylinositol 3,4,5-triphosphate (PIP3), streptavidin-labeled Allopycocyanin (APC) and europium-labeled Pleckstrin homology domain (the PIP3 binds to PH domain), and the time-resolved fluorescence reaction is induced by a series of reaction of PH domain and PIP3, and biotin and streptavidin. The sample was left to stand for 6 hours at room temperature, and the time-resolved fluorescence resonance energy transfer (TR-FRET) rate was measured (emission wavelength: 665 nm, 620 nm, excitation wavelength: 340 nm) by using a Flexstation3 Micro plate reader (Molecular Devices, USA). TR-FRET Rate and TR-Inhibition Rate were calculated based on Equations 1 and 2 below, and the results are expressed in IC50, which is the concentration of a compound that inhibits 50% of PI3Kγ activity in vitro. TR-FRET Rate=(665 nm emission wavelength/620 nm emission wavelength)×10000 <Equation 1> TR-FRET Inhibition Rate=[(TR-FRET Rate of Sample−TR-FRET Rate of Negative Control)/(TR-FRET Rate of Positive Control−TR-FRET Rate of Negative Control)]×100 <Equation 2>

Assay [3] concerns the target PI3Kγ (p120γ)(h) (Homo sapiens, UniProt P48736). Put plainly: Assay for phosphatidylinositol 3-kinase gamma (PI3Kγ) activity, PI3K-HTRF kit. Particulars: TR-FRET; enzyme 1.45 μg/ml, 10 μM PIP2, 10 μM ATP. Here is the method: as §1, §2, §4
Assay [4] deals with PI3K β (p110β/p85α)(h) (Homo sapiens, UniProt P42338). Put plainly: Assay for phosphatidylinositol 3-kinase beta (PI3Kβ) activity, PI3K-HTRF kit. Particulars: TR-FRET; enzyme 0.725 μg/ml, 10 μM PIP2, 10 μM ATP. Here is the method: [The source words this procedure for another target and says it was used here with some conditions changed.] as §1, §2, §3
Chain of PI3K β (p110β/p85α)(h) (P42338 whole entry): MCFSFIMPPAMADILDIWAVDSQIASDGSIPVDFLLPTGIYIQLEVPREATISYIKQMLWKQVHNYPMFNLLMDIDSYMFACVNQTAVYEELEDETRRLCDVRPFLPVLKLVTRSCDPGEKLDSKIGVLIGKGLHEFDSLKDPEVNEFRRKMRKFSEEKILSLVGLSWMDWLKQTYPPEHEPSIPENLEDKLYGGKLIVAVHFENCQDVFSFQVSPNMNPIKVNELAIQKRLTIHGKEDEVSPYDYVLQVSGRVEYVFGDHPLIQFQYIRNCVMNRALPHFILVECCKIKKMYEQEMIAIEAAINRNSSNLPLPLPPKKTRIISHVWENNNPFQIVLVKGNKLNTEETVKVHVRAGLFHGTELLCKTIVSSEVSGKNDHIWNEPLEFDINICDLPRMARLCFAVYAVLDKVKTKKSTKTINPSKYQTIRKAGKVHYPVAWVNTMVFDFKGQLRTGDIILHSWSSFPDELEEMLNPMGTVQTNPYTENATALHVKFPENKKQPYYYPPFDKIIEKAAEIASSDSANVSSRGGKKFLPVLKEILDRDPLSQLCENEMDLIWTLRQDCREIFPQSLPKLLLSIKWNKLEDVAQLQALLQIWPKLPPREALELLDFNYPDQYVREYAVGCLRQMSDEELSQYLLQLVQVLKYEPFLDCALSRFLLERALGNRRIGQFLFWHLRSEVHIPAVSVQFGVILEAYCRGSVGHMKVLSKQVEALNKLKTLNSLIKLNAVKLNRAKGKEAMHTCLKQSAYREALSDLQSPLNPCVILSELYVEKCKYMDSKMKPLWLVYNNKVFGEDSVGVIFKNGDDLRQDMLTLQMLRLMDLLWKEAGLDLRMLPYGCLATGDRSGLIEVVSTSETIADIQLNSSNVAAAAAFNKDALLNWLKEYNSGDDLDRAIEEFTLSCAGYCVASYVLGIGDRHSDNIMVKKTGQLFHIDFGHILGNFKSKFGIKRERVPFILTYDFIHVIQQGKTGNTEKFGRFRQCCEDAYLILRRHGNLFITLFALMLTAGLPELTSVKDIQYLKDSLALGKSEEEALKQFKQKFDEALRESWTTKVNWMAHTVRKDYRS
Chain of PI3K β (p110β/p85α)(h) (P27986 whole entry partner): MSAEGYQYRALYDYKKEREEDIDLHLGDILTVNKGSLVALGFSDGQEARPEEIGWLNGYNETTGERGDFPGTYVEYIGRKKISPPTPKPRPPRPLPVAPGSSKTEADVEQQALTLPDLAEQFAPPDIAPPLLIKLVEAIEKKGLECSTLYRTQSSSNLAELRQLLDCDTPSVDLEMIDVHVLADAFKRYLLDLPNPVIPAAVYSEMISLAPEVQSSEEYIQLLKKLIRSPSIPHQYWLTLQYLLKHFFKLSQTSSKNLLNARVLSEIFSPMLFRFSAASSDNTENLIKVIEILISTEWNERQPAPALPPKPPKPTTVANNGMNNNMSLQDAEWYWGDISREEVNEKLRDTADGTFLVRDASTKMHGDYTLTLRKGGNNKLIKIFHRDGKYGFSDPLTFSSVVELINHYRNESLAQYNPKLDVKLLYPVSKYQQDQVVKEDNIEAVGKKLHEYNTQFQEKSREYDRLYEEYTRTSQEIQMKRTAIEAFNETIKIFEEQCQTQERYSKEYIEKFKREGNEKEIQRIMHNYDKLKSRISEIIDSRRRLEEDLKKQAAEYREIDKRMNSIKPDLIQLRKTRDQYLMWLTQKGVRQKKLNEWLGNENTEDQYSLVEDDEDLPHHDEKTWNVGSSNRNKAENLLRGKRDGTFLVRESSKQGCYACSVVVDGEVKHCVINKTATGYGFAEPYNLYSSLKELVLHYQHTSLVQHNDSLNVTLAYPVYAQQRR

A word on the IC50: it is the concentration that gives 50% inhibition.

Chain of PI3Kδ (p110δ/p85α)(h) (O00329 whole entry): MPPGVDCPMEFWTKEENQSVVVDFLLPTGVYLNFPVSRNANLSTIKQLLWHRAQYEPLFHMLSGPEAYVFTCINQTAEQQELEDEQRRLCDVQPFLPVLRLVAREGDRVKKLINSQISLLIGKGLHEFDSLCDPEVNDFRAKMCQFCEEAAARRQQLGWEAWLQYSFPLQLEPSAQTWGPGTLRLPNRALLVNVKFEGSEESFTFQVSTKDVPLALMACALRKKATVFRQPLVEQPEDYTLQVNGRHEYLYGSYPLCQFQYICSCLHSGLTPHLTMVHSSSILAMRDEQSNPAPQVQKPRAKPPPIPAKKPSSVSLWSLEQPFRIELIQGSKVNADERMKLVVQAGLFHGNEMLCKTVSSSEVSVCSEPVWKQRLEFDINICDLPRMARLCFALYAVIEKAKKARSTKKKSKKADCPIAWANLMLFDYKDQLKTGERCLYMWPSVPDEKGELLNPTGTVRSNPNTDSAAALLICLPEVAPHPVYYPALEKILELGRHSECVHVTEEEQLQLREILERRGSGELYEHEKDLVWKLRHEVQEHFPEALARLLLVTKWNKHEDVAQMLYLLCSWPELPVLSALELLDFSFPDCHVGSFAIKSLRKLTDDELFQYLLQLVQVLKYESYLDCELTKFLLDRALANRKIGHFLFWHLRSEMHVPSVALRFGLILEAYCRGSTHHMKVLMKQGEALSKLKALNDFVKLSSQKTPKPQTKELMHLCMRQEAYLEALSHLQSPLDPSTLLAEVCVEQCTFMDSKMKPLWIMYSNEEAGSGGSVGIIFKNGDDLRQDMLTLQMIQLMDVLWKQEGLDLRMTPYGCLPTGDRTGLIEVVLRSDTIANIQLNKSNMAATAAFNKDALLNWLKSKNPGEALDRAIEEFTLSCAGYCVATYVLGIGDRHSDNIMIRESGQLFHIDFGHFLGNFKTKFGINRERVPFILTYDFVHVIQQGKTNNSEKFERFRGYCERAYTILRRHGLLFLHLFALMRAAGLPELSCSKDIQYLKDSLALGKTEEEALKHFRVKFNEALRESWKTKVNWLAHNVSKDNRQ
Chain of PI3Kδ (p110δ/p85α)(h) (P27986 whole entry partner): as the sequence (P27986 whole entry partner) above
Chain of PI3Kγ (p120γ)(h) (P48736 whole entry): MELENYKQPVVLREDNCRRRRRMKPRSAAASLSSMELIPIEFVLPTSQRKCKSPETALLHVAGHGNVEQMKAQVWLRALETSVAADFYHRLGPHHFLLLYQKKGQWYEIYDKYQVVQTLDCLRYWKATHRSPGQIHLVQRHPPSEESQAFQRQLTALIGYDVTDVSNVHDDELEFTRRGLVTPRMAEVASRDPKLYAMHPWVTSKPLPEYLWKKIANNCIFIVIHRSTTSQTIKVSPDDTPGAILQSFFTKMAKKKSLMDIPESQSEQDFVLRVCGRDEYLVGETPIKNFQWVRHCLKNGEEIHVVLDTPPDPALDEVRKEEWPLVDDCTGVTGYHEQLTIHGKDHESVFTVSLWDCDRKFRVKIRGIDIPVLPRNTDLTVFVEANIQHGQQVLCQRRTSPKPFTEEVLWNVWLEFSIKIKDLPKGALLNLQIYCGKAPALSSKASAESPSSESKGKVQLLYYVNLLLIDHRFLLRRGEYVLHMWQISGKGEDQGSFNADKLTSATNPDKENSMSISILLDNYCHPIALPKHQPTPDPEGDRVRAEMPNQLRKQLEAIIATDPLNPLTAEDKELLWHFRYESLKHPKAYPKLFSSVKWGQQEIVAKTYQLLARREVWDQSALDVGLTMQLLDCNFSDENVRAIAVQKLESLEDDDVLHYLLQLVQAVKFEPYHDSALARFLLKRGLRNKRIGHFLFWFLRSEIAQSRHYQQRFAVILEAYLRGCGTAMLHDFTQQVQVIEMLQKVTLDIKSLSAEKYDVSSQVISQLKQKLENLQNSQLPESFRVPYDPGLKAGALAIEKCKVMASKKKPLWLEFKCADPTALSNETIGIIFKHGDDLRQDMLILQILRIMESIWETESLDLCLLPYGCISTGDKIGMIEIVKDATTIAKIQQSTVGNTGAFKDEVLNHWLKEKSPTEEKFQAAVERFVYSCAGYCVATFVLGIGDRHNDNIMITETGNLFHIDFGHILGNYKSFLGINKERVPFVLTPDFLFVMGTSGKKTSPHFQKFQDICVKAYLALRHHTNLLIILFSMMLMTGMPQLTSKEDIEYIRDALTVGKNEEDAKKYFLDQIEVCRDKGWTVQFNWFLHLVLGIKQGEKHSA
Chain of PI3Kα (p110α/p85α)(h) (P42336 whole entry): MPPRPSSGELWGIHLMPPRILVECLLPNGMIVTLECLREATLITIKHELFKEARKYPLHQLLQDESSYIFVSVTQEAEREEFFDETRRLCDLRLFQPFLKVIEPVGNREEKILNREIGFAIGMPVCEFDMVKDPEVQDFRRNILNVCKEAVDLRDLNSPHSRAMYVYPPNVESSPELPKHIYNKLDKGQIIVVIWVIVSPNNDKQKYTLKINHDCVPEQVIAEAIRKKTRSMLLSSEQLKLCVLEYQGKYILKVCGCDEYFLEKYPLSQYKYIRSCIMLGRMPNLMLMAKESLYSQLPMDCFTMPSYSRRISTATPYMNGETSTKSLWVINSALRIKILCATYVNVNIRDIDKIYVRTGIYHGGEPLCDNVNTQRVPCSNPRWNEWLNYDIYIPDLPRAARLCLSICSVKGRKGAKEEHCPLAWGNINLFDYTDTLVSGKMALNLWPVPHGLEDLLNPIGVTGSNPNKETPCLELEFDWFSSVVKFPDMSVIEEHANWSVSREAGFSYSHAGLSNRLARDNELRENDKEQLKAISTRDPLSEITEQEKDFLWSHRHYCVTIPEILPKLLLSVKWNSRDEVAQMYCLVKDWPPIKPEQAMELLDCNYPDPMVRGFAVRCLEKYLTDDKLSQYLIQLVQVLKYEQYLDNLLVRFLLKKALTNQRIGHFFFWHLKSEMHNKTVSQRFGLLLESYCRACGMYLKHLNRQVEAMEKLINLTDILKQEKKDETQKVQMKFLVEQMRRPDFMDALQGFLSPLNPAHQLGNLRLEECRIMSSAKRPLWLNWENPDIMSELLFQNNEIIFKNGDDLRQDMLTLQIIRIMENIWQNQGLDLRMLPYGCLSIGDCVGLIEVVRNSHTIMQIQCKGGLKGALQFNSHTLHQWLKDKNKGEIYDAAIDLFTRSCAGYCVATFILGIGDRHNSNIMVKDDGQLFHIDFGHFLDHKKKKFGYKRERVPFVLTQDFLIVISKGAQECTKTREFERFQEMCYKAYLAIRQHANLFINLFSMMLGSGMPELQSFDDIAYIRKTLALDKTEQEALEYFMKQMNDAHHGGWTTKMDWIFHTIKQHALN
Chain of PI3Kα (p110α/p85α)(h) (P27986 whole entry partner): as the sequence (P27986 whole entry partner) above

Turning to `Cc1cc(-c2cncc3cc(/C=C4\SC(=S)NC4=O)oc23)cnc1F` [Example 195, (Z)-5-[7-(6-Fluoro-5-methylpyridin-3-yl)-furo[3,2-c]pyridin-2-ylmethylene]-2-thioxothiazolidin-4-one], the 50% inhibitory concentration (IC50) in assay [1] worked out at 1900 nM; in assay [2], 2 nM; in assay [3] it was 3 nM; in assay [4] it was 156 nM.
The like results for `COc1ccccc1NC(=O)c1cncc2cc(/C=C3\SC(=O)NC3=O)oc12` [Example 412, (Z)-2-{(2,4-Dioxothiazolidin-5-ylidene)methyl}-N-(2-methoxyphenyl)furo[3,2-c]pyridine-7-carboxamide] were, in that order, 205 nM, 17 nM, 182 nM and 869 nM.
The like results for `CN(C)S(=O)(=O)c1ccc(C#Cc2cncc3cc(/C=C4\SC(=S)NC4=O)oc23)cc1` [Example 571, (Z)—N,N-Dimethyl-4-([2-{(4-oxo-2-thioxothiazolidin-5-ylidene)methyl}furo[3,2-c]pyridin-7-yl]ethynyl)benzenesulfonamide] were, in that order, 78 nM, 1 nM, 15 nM and 2410 nM.
Taken in the same sequence, the figures for `COc1ccc(-c2cncc3cc(/C=C4\SC(=O)NC4=O)oc23)cn1` [Example 30, (Z)-5-[{7-(6-Methoxypyridin-3-yl)furo[3,2-c]pyridin-2-yl}methylene]thiazolidine-2,4-dione] were 460 nM, 40 nM, 6 nM and 1370 nM.
Turning to `COc1c(C)cc(-c2cncc3cc(/C=C4\SC(=O)NC4=O)oc23)cc1C` [Example 73, (Z)-5-[{7-(4-Methoxy-3,5-dimethylphenyl)furo[3,2-c]pyridin-2-yl}methylene]thiazolidine-2,4-dione], the IC50 is more than 10000 nM in assay [1], 10 nM in assay [2], 10 nM in assay [3] and more than 10000 nM in assay [4].
Take `CCOc1ccc(-c2cncc3cc(/C=C4\SC(=O)NC4=O)oc23)cc1Cl` [Example 51, (Z)-5-[{7-(3-Chloro-4-ethoxyphenyl)furo[3,2-c]pyridin-2-yl}methylene]thiazolidine-2,4-dione]: the IC50 in assay [1] is more than 10000 nM; in assay [2] it was 5 nM; in assay [3], 12 nM; in assay [4], more than 10000 nM.
Regarding `COC(=O)c1cccc(C#Cc2cncc3cc(/C=C4\SC(=O)NC4=O)oc23)c1` [Example 542, (Z)-Methyl 3-([2-{(2,4-dioxothiazolidin-5-ylidene)methyl}furo[3,2-c]pyridin-7-yl]ethynyl)benzoate], the IC50 was 1270 nM in assay [1], 3 nM in assay [2], 24 nM in assay [3] and more than 10000 nM in assay [4].
Taken in the same sequence, the figures for `O=C1NC(=O)/C(=C/c2cc3cncc(-c4ccc(O)nc4)c3o2)S1` [Example 11, (Z)-5-[{7-(6-Hydroxypyridin-3-yl)furo[3,2-c]pyridin-2-yl}methylene]thiazolidine-2,4-dione] were 168 nM, 8 nM, 15 nM and 48 nM.
`O=C1NC(=O)/C(=C/c2cc3cncc(-c4cccc(CN5CCCCC5)c4)c3o2)S1` [Example 132, (Z)-5-([7-{3-(Piperidin-1-ylmethyl)phenyl}furo[3,2-c]pyridin-2-yl]methylene)thiazolidine-2,4-dione]: the IC50 in assay [1] stood at 98 nM; in assay [2] it was 22 nM; in assay [3], 95 nM; in assay [4], 337 nM.
The like results for `O=C1NC(=O)/C(=C/c2cc3cncc(-c4ccc(F)cc4F)c3o2)S1` [Example 2, (Z)-5-[{7-(2,4-Difluorophenyl)furo[3,2-c]pyridin-2-yl}methylene]thiazolidine-2,4-dione] were, in that order, 117 nM, 35 nM, 654 nM and 208 nM.
The like results for `O=C1NC(=S)S/C1=C\c1cc2cncc(C#Cc3ccsc3)c2o1` [Example 555, (Z)-5-[{7-(Thiophen-3-ylethynyl)furo[3,2-c]pyridin-2-yl}methylene]-2-thioxothiazolidin-4-one] were, in that order, 120 nM, 5 nM, 18 nM and 3470 nM.
The like results for `O=C1NC(=O)/C(=C/c2cc3cncc(C#Cc4cccc(C(F)(F)F)c4)c3o2)S1` [Example 441, (Z)-5-{(7-[{3-(Trifluoromethyl)phenyl}ethynyl]furo[3,2-c]pyridin-2-yl)methylene}thiazolidine-2,4-dione] were, in that order, more than 10000 nM, 2 nM, 10 nM and more than 10000 nM.
Regarding “2-Thioxo-5-[{7-(m-tolylethynyl)furo[3,2-c]pyridin-2-yl}methyl]thiazolidin-4-one [Example 546]”, the IC50 in assay [1] is more than 10000 nM; in assay [2], 360 nM; in assay [3], 3 nM; in assay [4] it was 5500 nM.
The like results for `Nc1ccc(-c2cncc3cc(/C=C4\SC(=S)NC4=O)oc23)cc1C(F)(F)F` [Example 361, (Z)-5-([7-{4-Amino-3-(trifluoromethyl)phenyl}furo[3,2-c]pyridin-2-yl]methylene)-2-thioxothiazolidin-4-one] were, in that order, 924 nM, 41 nM, 10 nM and 1430 nM.
